Assay results taken from patent US20230200391A1, “ACTIVE COMPOUND COMBINATIONS AND FUNGICIDE COMPOSITIONS COMPRISING THOSE” (priority 2020, published 2023).
Where “and” joins values, the source holds several entries; their conditions need not be identical. Identical values can stand only once.

Key:
Type in all cases: cell-based
[1] = system: Fusarium culmorum; assay: in vitro-Test with Fusarium culmorum
Description: (§1) Wells of 96-well microtiter plates are filled with 30 μl of a preparation of test compound or compound combination in methanol+emulsifier alkylaryl-polyglycol-ether. Thereafter, the solvent is evaporated in a hood. At the next step, into each well 200 μl of liquid growth medium is given, that has been amended with an appropriate concentration of spores or mycelium suspension of the test fungus.
(§2) With the aid of a photometer the extinction in all wells is measured at the wavelength of 600 nm.
(§3) The microtiter plates are incubated for 3 to 7 days at 20° C. and 85% relative humidity. After the incubation inhibition of growth is determined photometrically. Efficacy is calculated in relation to the untreated control, 0% efficacy means fungal growth as high as in untreated control while 100% efficacy means no fungal growth is measured.

[2] = system: Alternaria alternata; assay: in vitro-Test with Alternaria alternata
Description: as §1, §2, §3

[3] = system: Cordana musae; assay: in vitro-Test with Cordana musae
Description: as §1, §2, §3

[4] = system: Botrytis cinerea; assay: in vitro-Test with Botrytis cinerea
Description: as §1, §2, §3

[5] = system: Parastagonospora nodorum; assay: in vitro-Test with Parastagonospora nodorum
Description: as §1, §2, §3

[6] = system: Colletotrichum coccodes; assay: in vitro-Test with Colletotrichum coccodes
Description: as §1, §2, §3

[7] = system: Cercospora beticola; assay: in vitro-Test with Cercospora beticola
Description: as §1, §2, §3

[8] = system: Ustilago segetum var. avenae; assay: in vitro-Test with Ustilago segetum var. avenae
Description: as §1, §2, §3

[9] = system: Diaporthe citri; assay: in vitro-Test with Diaporthe citri
Description: as §1, §2, §3

## O=C(NC1CCC1c1ccc(Cl)cc1Cl)c1cccnc1C(F)(F)F (stereo in doubt) [(2.060), cyclobutrifluram]
[1]; 0.04 ppm
  efficacy %: 47%
[1]; 5 ppm
  efficacy %: 56%
[2]; 0.04 ppm
  efficacy %: 80%
[2]; 5 ppm
  efficacy %: 88%
[3]; 0.04 ppm
  efficacy %: 0%
[3]; 0.2 ppm
  efficacy %: 0%
[4]; 0.04 ppm
  efficacy %: 49%
[4]; 0.2 ppm
  efficacy %: 77%
[4]; 1 ppm
  efficacy %: 92%
[5]; 5 ppm
  efficacy %: 0%
[5]; single compound at 0.04 ppm
  efficacy %: 5%
[5]; single compound at 0.2 ppm
  efficacy %: 13%
[5]; single compound at 5 ppm
  efficacy %: 98%
[6]; 0.04 ppm
  efficacy %: 0%
[6]; 0.2 ppm
  efficacy %: 0%
[6]; 1 ppm
  efficacy %: 0%
[6]; 5 ppm
  efficacy %: 12%

## OC(Cc1ccccc1Cl)(Cn1nc[nH]c1=S)C1(Cl)CC1 (stereo not drawn) [(1.018), prothioconazole]
[1]; 0.004 ppm
  efficacy %: 3%
[1]; 0.02 ppm
  efficacy %: 0%
[7]; 0.1 ppm
  efficacy %: 100%
[7]; 0.5 ppm
  efficacy %: 96%
[2]; 0.004 ppm
  efficacy %: 26%
[2]; 0.02 ppm
  efficacy %: 13%
[2]; 0.1 ppm
  efficacy %: 37%
[3]; 0.004 ppm
  efficacy %: 3% and 0% and 2%
[3]; 0.5 ppm
  efficacy %: 99%
[5]; 0.02 ppm
  efficacy %: 83%
[5]; 0.1 ppm
  efficacy %: 97%
[5]; 0.5 ppm
  efficacy %: 97%
[5]; single compound at 0.004 ppm
  efficacy %: 2%
[8]; 0.004 ppm
  efficacy %: 45%
[8]; 0.1 ppm
  efficacy %: 99%
[8]; 0.5 ppm
  efficacy %: 99%
[9]; 0.004 ppm
  efficacy %: 14%
[9]; 0.1 ppm
  efficacy %: 98%
[9]; 0.5 ppm
  efficacy %: 99%
[6]; 0.004 ppm
  efficacy %: 0%

## O=C(NCCc1ncc(C(F)(F)F)cc1Cl)c1ccccc1C(F)(F)F [(2.005), fluopyram]
[7]; 0.16 ppm
  efficacy %: 25%
[7]; 0.8 ppm
  efficacy %: 0%
[7]; 4 ppm
  efficacy %: 11%
[2]; 0.16 ppm
  efficacy %: 67%
[2]; 20 ppm
  efficacy %: 89%
[4]; 0.16 ppm
  efficacy %: 48%
[4]; 0.8 ppm
  efficacy %: 77%
[4]; 20 ppm
  efficacy %: 97%
[5]; 4 ppm
  efficacy %: 49%
[5]; 20 ppm
  efficacy %: 86%

## Cc1nn(C)c(F)c1C(=O)Nc1ccccc1C(C)CC(C)C (stereo not drawn) [(2.017), penflufen]
[2]; 0.04 ppm
  efficacy %: 10%
[2]; 1 ppm
  efficacy %: 65%
[5]; 0.2 ppm
  efficacy %: 0%
[5]; 5 ppm
  efficacy %: 42%
[5]; single compound at 0.04 ppm
  efficacy %: 0%
[5]; single compound at 0.2 ppm
  efficacy %: 4%
[5]; single compound at 1 ppm
  efficacy %: 17%
[5]; single compound at 5 ppm
  efficacy %: 48%

## CC(C)c1ccc(Cl)cc1CN(C(=O)c1c(C(F)F)nn(C)c1F)C1CC1 [(2.038), isoflucypram]
[1]; 0.04 ppm
  efficacy %: 0%
[7]; 0.04 ppm
  efficacy %: 0%
[2]; 1 ppm
  efficacy %: 76%
[4]; 0.2 ppm
  efficacy %: 74%
[4]; 1 ppm
  efficacy %: 86%

## CO/N=C(/C1=NOCCO1)c1ccccc1Oc1ncnc(Oc2ccccc2Cl)c1F [(3.012), fluoxastrobin]
[1]; 0.4 ppm
  efficacy %: 26%
[1]; 2 ppm
  efficacy %: 34%
[1]; 10 ppm
  efficacy %: 47% and 54%
[2]; 0.4 ppm
  efficacy %: 87%
[3]; 2 ppm
  efficacy %: 74%
[3]; 10 ppm
  efficacy %: 81%
[6]; 2 ppm
  efficacy %: 85%

## CON=C(C(=O)OC)c1ccccc1CON=C(C)c1cccc(C(F)(F)F)c1 [(3.020), trifloxystrobin]
[1]; 0.008 ppm
  efficacy %: 0%
[1]; 0.04 ppm
  efficacy %: 19%
[2]; 0.008 ppm
  efficacy %: 22%
[2]; 0.04 ppm
  efficacy %: 62%
[4]; 0.008 ppm
  efficacy %: 5%
[4]; 0.04 ppm
  efficacy %: 17%
[4]; 0.2 ppm
  efficacy %: 13%
[5]; single compound at 0.008 ppm
  efficacy %: 32%
[5]; single compound at 0.04 ppm
  efficacy %: 73%
[5]; single compound at 1 ppm
  efficacy %: 97%
[6]; 0.008 ppm
  efficacy %: 7%

## Cc1cccc(-n2nnn(C)c2=O)c1COc1ccn(-c2ccc(Cl)cc2)n1 [(3.030), metyltetraprole]
[3]; 0.08 ppm
  efficacy %: 44%
[3]; 0.4 ppm
  efficacy %: 70%
[3]; 2 ppm
  efficacy %: 78%
[4]; 0.008 ppm
  efficacy %: 11%
[4]; 0.4 ppm
  efficacy %: 34%
[4]; 2 ppm
  efficacy %: 41%
[4]; 10 ppm
  efficacy %: 81%
[8]; 10 ppm
  efficacy %: 34%
[9]; 2 ppm
  efficacy %: 95%
[9]; 10 ppm
  efficacy %: 99%
[6]; 0.08 ppm
  efficacy %: 25%
[6]; 0.4 ppm
  efficacy %: 73%
[6]; 10 ppm
  efficacy %: 100%

## COC(=O)C(O)(Cn1cncn1)c1ccc(Oc2ccc(Cl)cc2)cc1Cl (stereo not drawn) [(I-1), Methyl 2-[2-chloro-4-(4-chlorophenoxy)phenyl]-2-hydroxy-3-(1,2,4-triazol-1-yl)propanoate]
[1]; 0.02 ppm
  efficacy %: 14% and 10% and 4%
[1]; 0.5 ppm
  efficacy %: 0%
[7]; 0.5 ppm
  efficacy %: 100%
[7]; 2.5 ppm
  efficacy %: 100%
[3]; 0.02 ppm
  efficacy %: 0%
[3]; 0.1 ppm
  efficacy %: 5%
[3]; 0.5 ppm
  efficacy %: 15%
[3]; 2.5 ppm
  efficacy %: 99%
[4]; 0.02 ppm
  efficacy %: 3%
[4]; 0.2 ppm
  efficacy %: 0%
[4]; 0.5 ppm
  efficacy %: 27%
[5]; 0.1 ppm
  efficacy %: 87%
[5]; 0.5 ppm
  efficacy %: 98%
[5]; 2.5 ppm
  efficacy %: 96%
[5]; single compound at 0.02 ppm
  efficacy %: 0%
[8]; 0.02 ppm
  efficacy %: 9%
[8]; 0.5 ppm
  efficacy %: 96%
[8]; 2.5 ppm
  efficacy %: 98%
[9]; 0.1 ppm
  efficacy %: 0%
[9]; 0.5 ppm
  efficacy %: 96%
[6]; 0.1 ppm
  efficacy %: 0%
[6]; 0.5 ppm
  efficacy %: 32%

## inpyrfluxam [(2.027)]
[3]; 1 ppm
  efficacy %: 3%
[9]; 1 ppm
  efficacy %: 86% and 84%

## mancozeb [(5.013)]
[1]; 0.16 ppm
  efficacy %: 0%
[1]; 0.8 ppm
  efficacy %: 0%
[1]; 4 ppm
  efficacy %: 0%
[7]; 20 ppm
  efficacy %: 98% and 100%
[2]; 0.16 ppm
  efficacy %: 0%
[2]; 0.8 ppm
  efficacy %: 0% and 1%
[2]; 20 ppm
  efficacy %: 74%
[3]; 0.16 ppm
  efficacy %: 0%
[3]; 0.8 ppm
  efficacy %: 0%
[3]; 4 ppm
  efficacy %: 12%
[4]; 0.16 ppm
  efficacy %: 4%
[4]; 0.8 ppm
  efficacy %: 6%
[4]; 4 ppm
  efficacy %: 6%
[5]; single compound at 0.16 ppm
  efficacy %: 0%
[9]; 0.8 ppm
  efficacy %: 0%
[9]; 20 ppm
  efficacy %: 96%
[6]; 4 ppm
  efficacy %: 24%
